What was measured:
Format in all cases: physicochemical
[1] = Stability of L-DHO in rat serum at −20° C.; details: for Residue (%) / concentration 1 5 μg/ml / Concentration 2 20 μg/ml: Rat serum
Description: (§1) A standard stock solution was prepared by dissolving 1 mg L-DHO in 1 ml water. Aliquots of 400 μl were frozen at −20° C. Stability of these solutions was guaranteed for at least 4 weeks. Defined amounts of the stock solution were added to the cell lysates and to human or rat serum and assayed to evaluate the linearity between the increase of the signal and the spiked L-DHO concentration. The precision and the accuracy of the method were investigated by using quality control (QC) samples with an L-DHO content in the low, the middle and the high concentration range of the signal/concentration linearity curve.
(§2) In order to reduce the protein content […] serum were added to a Microcon filter (10 000 D, model 10, code 42407, Amicon) and centrifuged for 30 min at 13 000 rounds per minute (rpm). The flow through consisted of about 150 μl and contains the analyte L-DHO. From this liquid 20 μl were used for HPLC analysis.
(§3) L-DHO was stable under the above mentioned conditions in Jurkat cells over a period of at least 4 weeks. […] For these reasons it can be stated only that in rat and human serum samples L-DHO is definitely stable only for at least 1 week.

[2] = Stability of L-DHO for 18 h at 14° C. in human serum; details: for Residue (%) / concentration 1 5 μg/ml / Concentration 2 20 μg/ml: Human serum, 14° C.
Description: (§4) In order to simulate the conditions of the samples when they are waiting in the autosampler for the actual analysis the stability during 18 h at 14° C. was determined. For that reason the cell lysates were spiked and then treated with 30 μl 6 M KOH/100 μl lysate before the start of the analysis. Correspondingly, the serum samples were spiked and then deproteinized as described in 1.5.2. […] In serum samples the analyte is stable under these conditions. For these reasons only so many HPLC samples were prepared that the maximal length of stay in the autosampler was less than 18 h.

[3] = Stability of L-DHO for 18 h at 14° C. in rat serum; details: for concentration 1 5 μg/ml / Residue (%) / Concentration 2 20 μg/ml: Rat serum, 14° C.
Description: as §4

[4] = Stability of L-DHO standard stock solution; details: 1 mg L-DHO in 1 ml water, frozen at −20° C.
Description: as §1

[5] = Stability of L-DHO for 18 h at 14° C. in Jurkat cell lysates; details: for Residue (%) / concentration 1 20 μg/ml / Concentration 2 100 μg/ml: Jurkat cells, 14° C.
Description: as §4

[6] = Stability of L-DHO in human serum at −20° C.; details: for Residue (%) / concentration 1 5 μg/ml / Concentration 2 20 μg/ml: Human serum
Description: as §1, §2, §3

[7] = Stability of L-DHO in Jurkat cell lysates at −20° C.; details: Jurkat cells
Description: as §1
Cells were suspended in a defined medium volume and cell density of samples was determined via vital microscopy using Eosin. About 10×10^6 cells were removed, pelleted by 5 minute-centrifugation at 350×g and the supernatant was discarded. Lysis of the cells was done by resuspending the cell pellet in 500 μl 1.2 M HClO4. This mixture was transferred in 2.0 ml Eppendorf safe-lock caps and the protein was precipitated by 2 minutes high speed centrifugation. The supernatant was completely removed, transferred in glass vials and after addition of 500 μl chloroform thoroughly mixed by 2 minutes vortexing. Cellular lipids were extracted by chloroform following 10 minutes centrifugation (1502 g) at 10° C. The purified supernatant was collected in 2 ml Eppendorf-caps and stored at −20° C. until further used. For the HPLC analysis 100 μl of this supernatant were neutralized with 30 μl 6 M KOH. After shaking for about 5 sec the samples were stored on ice for 30 min. Thereafter they were centrifuged for 5 min at 15 000 rpm. From the clear supernatant 20 μl were used for the HPLC analysis.
as §3

Residue (%) ([1]; 5 μg/ml, Time 0 (h)): 100%
concentration 1 5 μg/ml ([1]; 5 μg/ml, Time 0 (h)): 4300 ng/mL
Residue (%) ([1]; 5 μg/ml, Time 7 (h)): 105.1%
concentration 1 5 μg/ml ([1]; 5 μg/ml, Time 7 (h)): 4520 ng/mL
Residue (%) ([1]; 5 μg/ml, Time 14 (h)): 111.9%
concentration 1 5 μg/ml ([1]; 5 μg/ml, Time 14 (h)): 4810 ng/mL
Residue (%) ([1]; 5 μg/ml, Time 21 (h)): 129.1%
concentration 1 5 μg/ml ([1]; 5 μg/ml, Time 21 (h)): 5550 ng/mL
Concentration 2 20 μg/ml ([1]; 20 μg/ml, Time 0 (h)): 19940 ng/mL
Residue (%) ([1]; 20 μg/ml, Time 0 (h)): 100%
Concentration 2 20 μg/ml ([1]; 20 μg/ml, Time 7 (h)): 19620 ng/mL
Residue (%) ([1]; 20 μg/ml, Time 7 (h)): 98.4%
Concentration 2 20 μg/ml ([1]; 20 μg/ml, Time 14 (h)): 20930 ng/mL
Residue (%) ([1]; 20 μg/ml, Time 14 (h)): 105.0%
Concentration 2 20 μg/ml ([1]; 20 μg/ml, Time 21 (h)): 22330 ng/mL
Residue (%) ([1]; 20 μg/ml, Time 21 (h)): 112.2%
period over which L-DHO is definitely stable ([1]; rat serum): at least 1 week
Residue (%) ([2]; 5 μg/ml, 0 h): 100%
concentration 1 5 μg/ml ([2]; 5 μg/ml, 0 h): 3340 ng/mL
Residue (%) ([2]; 5 μg/ml, 18 h): 100.9%
concentration 1 5 μg/ml ([2]; 5 μg/ml, 18 h): 3370 ng/mL
Concentration 2 20 μg/ml ([2]; 20 μg/ml, 0 h): 18780 ng/mL
Residue (%) ([2]; 20 μg/ml, 0 h): 100%
Concentration 2 20 μg/ml ([2]; 20 μg/ml, 18 h): 22090 ng/mL
Residue (%) ([2]; 20 μg/ml, 18 h): 117.6%
stability of the analyte in serum samples ([2]; human serum, 18 h at 14° C.): stable
concentration 1 5 μg/ml ([3]; 5 μg/ml, 0 h): 4610 ng/mL
Residue (%) ([3]; 5 μg/ml, 18 h): 107.6%
concentration 1 5 μg/ml ([3]; 5 μg/ml, 18 h): 4960 ng/mL
Concentration 2 20 μg/ml ([3]; 20 μg/ml, 0 h): 19990 ng/mL
Residue (%) ([3]; 20 μg/ml, 0 h): 100%
Concentration 2 20 μg/ml ([3]; 20 μg/ml, 18 h): 20530 ng/mL
Residue (%) ([3]; 20 μg/ml, 18 h): 102.7%
stability of the analyte in serum samples ([3]; rat serum, 18 h at 14° C.): stable
Stability of standard stock solution [4]: at least 4 weeks
Residue (%) ([5]; 20 μg/ml, 0 h): 100%
concentration 1 20 μg/ml ([5]; 20 μg/ml, 0 h): 19960 ng/mL
Residue (%) ([5]; 20 μg/ml, 18 h): 93.2%
concentration 1 20 μg/ml ([5]; 20 μg/ml, 18 h): 18600 ng/mL
Concentration 2 100 μg/ml ([5]; 100 μg/ml, 0 h): 100020 ng/mL
Residue (%) ([5]; 100 μg/ml, 0 h): 100%
Concentration 2 100 μg/ml ([5]; 100 μg/ml, 18 h): 97430 ng/mL
Residue (%) ([5]; 100 μg/ml, 18 h): 97.4%
reduction of L-DHO content ([5]; cells, 18 h at 14° C.): ≤ 7%
Residue (%) ([6]; 5 μg/ml, Time 0 (h)): 100%
concentration 1 5 μg/ml ([6]; 5 μg/ml, Time 0 (h)): 4670 ng/mL
Residue (%) ([6]; 5 μg/ml, Time 8 (h)): 103.0%
concentration 1 5 μg/ml ([6]; 5 μg/ml, Time 8 (h)): 4810 ng/mL
Residue (%) ([6]; 5 μg/ml, Time 65 (h)): 104.3%
concentration 1 5 μg/ml ([6]; 5 μg/ml, Time 65 (h)): 4870 ng/mL
Concentration 2 20 μg/ml ([6]; 20 μg/ml, Time 0 (h)): 20220 ng/mL
Residue (%) ([6]; 20 μg/ml, Time 0 (h)): 100%
Concentration 2 20 μg/ml ([6]; 20 μg/ml, Time 8 (h)): 20380 ng/mL
Residue (%) ([6]; 20 μg/ml, Time 8 (h)): 100.8%
Concentration 2 20 μg/ml ([6]; 20 μg/ml, Time 65 (h)): 23200 ng/mL
Residue (%) ([6]; 20 μg/ml, Time 65 (h)): 114.7%
period over which L-DHO is definitely stable ([6]; human serum): at least 1 week
Residue (%) ([7]; 20 μg/ml, 0 days): 100%
concentration 1 20 μg/ml ([7]; 20 μg/ml, 0 days): 19340 ng/mL
Residue (%) ([7]; 20 μg/ml, 7 days): 99.7%
concentration 1 20 μg/ml ([7]; 20 μg/ml, 7 days): 19280 ng/mL
Residue (%) ([7]; 20 μg/ml, 29 days): 103.3%
concentration 1 20 μg/ml ([7]; 20 μg/ml, 29 days): 19980 ng/mL
Concentration 2 100 μg/ml ([7]; 100 μg/ml, 0 days): 100050 ng/mL
Residue (%) ([7]; 100 μg/ml, 0 days): 100%
Concentration 2 100 μg/ml ([7]; 100 μg/ml, 7 days): 99090 ng/mL
Residue (%) ([7]; 100 μg/ml, 7 days): 99.0%
Concentration 2 100 μg/ml ([7]; 100 μg/ml, 14 days): 115320 ng/mL
Residue (%) ([7]; 100 μg/ml, 14 days): 115.3%
Concentration 2 100 μg/ml ([7]; 100 μg/ml, 29 days): 99350 ng/mL
Residue (%) ([7]; 100 μg/ml, 29 days): 99.3%
period over which L-DHO was stable ([7]; 2-3 freezing/thawing cycles): at least 4 weeks
Structure (SMILES): O=C1C[C@@H](C(=O)O)NC(=O)N1 [L-DHO, L-dihydroorotic acid]

Reference: US6545006B1, “Process for obtaining L-dihydroorotic acid and use thereof” (Aventis Pharma Deutschland GmbH, priority 1997, dated 2003)
